Columns and labels:
mouse PKCε-mVenus = molecular target: T1, mouse PKCε-mVenus (Mus musculus, UniProt P16054); test: Fluorescent cellular competition assay with probe 47, PKCε-mVenus; format: binding; set-up: eight plasmids encoding full length mouse PKC isozymes fused to; expressed in transfected cells; host or cells: HEK293
T1 sequence (P16054 1-737): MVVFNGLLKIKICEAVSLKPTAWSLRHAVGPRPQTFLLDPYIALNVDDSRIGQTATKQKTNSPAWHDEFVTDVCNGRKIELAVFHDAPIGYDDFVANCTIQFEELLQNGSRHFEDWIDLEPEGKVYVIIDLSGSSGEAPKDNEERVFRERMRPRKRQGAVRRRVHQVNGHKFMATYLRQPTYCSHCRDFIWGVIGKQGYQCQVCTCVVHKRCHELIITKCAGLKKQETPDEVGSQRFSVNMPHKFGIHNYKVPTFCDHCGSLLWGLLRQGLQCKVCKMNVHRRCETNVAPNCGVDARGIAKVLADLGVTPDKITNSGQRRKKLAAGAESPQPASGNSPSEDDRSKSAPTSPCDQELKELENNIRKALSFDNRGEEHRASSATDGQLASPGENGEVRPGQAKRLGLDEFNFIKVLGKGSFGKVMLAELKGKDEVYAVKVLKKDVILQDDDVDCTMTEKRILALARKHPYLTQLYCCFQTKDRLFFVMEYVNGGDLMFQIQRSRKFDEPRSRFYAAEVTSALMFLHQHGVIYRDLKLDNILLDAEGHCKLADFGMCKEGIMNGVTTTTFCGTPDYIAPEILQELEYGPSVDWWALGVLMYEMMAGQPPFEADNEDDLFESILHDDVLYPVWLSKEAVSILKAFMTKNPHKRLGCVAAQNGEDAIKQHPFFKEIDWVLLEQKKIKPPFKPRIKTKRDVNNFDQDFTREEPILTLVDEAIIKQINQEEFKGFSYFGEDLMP
Excerpt: (§1) Labeled compounds (tracers) can be used to measure dissociation constants (Kd) and evaluate how tightly different compounds bind to a target protein. However, labeled ligands are not always readily accessible and labels such as fluorophores on small molecules can affect affinities compared to unlabeled compounds. As an alternative, competitive binding assays are widely used to quantify the affinity of small molecules for target proteins. This approach can measure binding by varying the concentration of an unlabeled ligand in the presence of a fixed concentration of a tracer of interest (FIG. 24). The feasibility of this approach for quantification of cellular Ki values using probe 47 was validated with PMA as shown in Table 1.
(§2) HEK293 cells were transfected with different plasmids encoding fluorescent PKC isoforms.

mouse PKCη-mVenus = mouse PKCη-mVenus (Mus musculus, UniProt P23298); test: Fluorescent cellular competition assay with probe 47, PKCη-mVenus; format: binding; set-up: eight plasmids encoding full length mouse PKC isozymes fused to; expressed in transfected cells; host or cells: HEK293
Excerpt: as §1, §2

mouse PKCδ-mVenus = mouse PKCδ-mVenus (Mus musculus, UniProt P28867); test: Fluorescent cellular competition assay with probe 47, PKCδ-mVenus; format: binding; set-up: eight plasmids encoding full length mouse PKC isozymes fused to; expressed in transfected cells; host or cells: HEK293
Excerpt: as §1, §2

mouse PKCβI-mVenus [1] = molecular target: T2, mouse PKCβI-mVenus (Mus musculus, UniProt P68404); test: Fluorescent cellular competition assay with probe 47, PKCβI-mVenus; format: binding
T2 construct: eight plasmids encoding full length mouse PKC isozymes fused to; expressed in transfected cells; host or cells: HEK293
Excerpt: as §1, §2

mouse PKCθ-mVenus = mouse PKCθ-mVenus (Mus musculus, UniProt Q02111); test: Fluorescent cellular competition assay with probe 47, PKCθ-mVenus; format: binding; set-up: eight plasmids encoding full length mouse PKC isozymes fused to; expressed in transfected cells; host or cells: HEK293 (transient)
Excerpt: as §1, §2

mouse PKCα-mVenus = mouse PKCα-mVenus (Mus musculus, UniProt P20444); test: Fluorescent cellular competition assay with probe 47, PKCα-mVenus; format: binding; set-up: eight plasmids encoding full length mouse PKC isozymes fused to; expressed in transfected cells; host or cells: HEK293
Excerpt: as §1, §2

mouse PKCγ-mVenus = mouse PKCγ-mVenus (Mus musculus, UniProt P63318); test: Fluorescent cellular competition assay with probe 47, PKCγ-mVenus; format: binding; set-up: eight plasmids encoding full length mouse PKC isozymes fused to; expressed in transfected cells; host or cells: HEK293
Excerpt: as §1, §2

[2] = system: cellular microtubules (HeLa cells); test: Pilot screen of NCI Diversity Set VI: inhibition of binding of PB-GABA-Taxol, with dose-response validation; settings: 25 μM, 3 h, normalized to DMSO (0%) and paclitaxel 10 μM (100%)
[3] = system: microtubules (taxane binding site) in living HeLa cells; test: Competition binding assay with PB-GABA-Taxol in living HeLa cells (cellular Ki); settings: read-out: cellular Ki; PB-GABA-Taxol 1.5 μM, verapamil 100 μM, 37° C., 4% FBS, 3 h
Protocol: In this assay the cellular Kd was measured by varying the concentration of the fluorescent probe added to cells at equilibrium as established by kinetic assays of probe uptake. Total binding of this probe to specific and non-specific sites in cells in the presence of the efflux inhibitor verapamil was determined by flow cytometry. Non-specific binding was quantified separately by addition of excess paclitaxel with the probe under the same conditions. Subtraction of the linear non-specific binding contribution from the total binding curve was used analyze specific binding of the probe to tubulin of microtubules. Measurement of this cellular dissociation constant under equilibrium conditions further allowed conversion of the half-maximal inhibitory concentration (IC50) of unlabeled compounds into cellular inhibitory constants using an adaptation of the Cheng-Prusoff equation^44 for competitive modulators (Ki) or the allosteric equation^45 for non-competitive modulators (Kb and the cooperativity factor α) as implemented by GraphPad Prism.

[4] = molecular target: crosslinked / purified microtubules; settings: previously reported, cited from earlier work; for Kd: read-out: biochemical Kd for microtubules; for Ki: read-out: biochemical Ki for microtubules
[5] = system: microtubules in living HeLa cells; test: Allosteric modulator assay with PB-GABA-Taxol in living HeLa cells (cellular Kb, α); settings: PB-GABA-Taxol 1.5 μM, verapamil 100 μM, 3 h, 37° C.; for Kb: read-out: cellular Kb (allosteric modulator)
Excerpt: In this model, two compounds that engage tubulin at different binding sites influence the binding of each other through cooperativity. […] Smaller cooperativity factors (α) represent stronger effects on binding of the orthosteric probe. For these allosteric modulators, the apparent cellular affinity was defined as Kb, and the mathematical relationship between Kb and α is provided (equation 3).
The experimental method for allosteric binding assays was identical to the competition binding assays described previously. However, because it is inaccurate to describe an allosteric modulator with a competitive inhibitory constant (Ki), we used an allosteric modulator model (Kb) for data analysis. […] The observed occupancy of the orthosteric ligand is defined as KApp and is determined by the equilibrium dissociation constant of the orthosteric ligand (Kd), the concentration of allosteric ligand, its affinity for the receptor (Kb), and the strength by which the allosteric ligand affects receptor binding to the orthosteric ligand as defined by the cooperativity factor (a).

mouse PKCβI-mVenus [6] = molecular target: T2, mouse PKCβI-mVenus; test: Apparent cellular Kd by flow cytometry, HEK293 cells overexpressing PKCβI-mVenus (Example 2); format: binding
Protocol: The apparent Kd values of these fluorescent probes were measured using different PKC isozymes (e.g., PKCβI, FIGS. 20A-20D). HEK293 cells were transfected to overexpress PKCβ-mVenus and treated with probes in the presence of verapamil (100 μM) as an inhibitor of efflux.

C1A-C1A-EYFP (PKCγ) = molecular target: T3, C1A-C1A-EYFP (PKCγ) (UniProt P63319); test: Cellular binding by flow cytometry, HEK293 cells expressing C1A-C1A-EYFP (PKCγ)
T3 construct: apparent Kd; other: verapamil 100 μM, 90 min, 37° C., DMEM high glucose, 4% FBS; half time (t1/2) of cellular fluorescence; other: 33 at 5 μM, verapamil 100 μM, room temperature; fused on or other part: EYFP at the C-terminus; the C1A module is present twice in one chain
Excerpt: The dissociation constant can be defined as the ratio of koff divided by kon. This value is also the concentration where the ligand occupies 50% of the receptor.^94 Kd is only meaningful when equilibrium is reached, where the ligand-receptor complex is formed at the same rate as it dissociates into free ligand and receptor (FIG. 15). This binding equilibrium is established when essentially no further change in the amount of bound complex is observed over time. To evaluate the time needed for equilibration, we treated HEK293 cells that overexpress C1A-C1A-EYFP (PKCγ) with 33 (0 and 5 μM) in the presence or absence of verapamil (100 μM) and cellular fluorescence was measured by flow cytometry as a function of time (FIG. 18A). […] This optimization was used to establish a 90 min equilibration period for further assay optimization.
The presence of fetal bovine serum (FBS) in the culture media also influenced the binding by sequestering the free ligand. The assay conditions were finalized using HEK293 cells incubated with the probe in the presence of verapamil for 90 min at 37° C. in DMEM media (high glucose, 4% FBS).

Sequence of mouse PKCη-mVenus (P23298 whole entry, the tested form may be a part): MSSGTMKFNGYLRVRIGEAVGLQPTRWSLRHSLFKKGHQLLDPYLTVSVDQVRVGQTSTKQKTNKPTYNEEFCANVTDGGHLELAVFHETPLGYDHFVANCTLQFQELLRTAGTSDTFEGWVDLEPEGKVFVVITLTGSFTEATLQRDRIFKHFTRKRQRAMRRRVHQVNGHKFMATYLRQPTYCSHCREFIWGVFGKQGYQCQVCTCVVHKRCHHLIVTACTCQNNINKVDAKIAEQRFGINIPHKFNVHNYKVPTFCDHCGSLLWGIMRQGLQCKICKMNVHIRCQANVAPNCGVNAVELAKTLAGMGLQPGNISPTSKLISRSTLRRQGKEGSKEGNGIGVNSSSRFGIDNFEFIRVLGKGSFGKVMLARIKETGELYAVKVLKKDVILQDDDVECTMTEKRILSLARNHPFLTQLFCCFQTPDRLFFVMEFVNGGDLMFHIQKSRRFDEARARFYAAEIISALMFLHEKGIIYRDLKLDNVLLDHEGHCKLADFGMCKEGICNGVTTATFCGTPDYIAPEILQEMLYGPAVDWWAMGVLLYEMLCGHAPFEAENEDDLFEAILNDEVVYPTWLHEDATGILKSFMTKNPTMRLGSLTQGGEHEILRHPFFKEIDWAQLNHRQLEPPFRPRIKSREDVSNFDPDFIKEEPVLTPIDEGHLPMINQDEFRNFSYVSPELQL
Sequence of mouse PKCθ-mVenus (Q02111 whole entry, the tested form may be a part): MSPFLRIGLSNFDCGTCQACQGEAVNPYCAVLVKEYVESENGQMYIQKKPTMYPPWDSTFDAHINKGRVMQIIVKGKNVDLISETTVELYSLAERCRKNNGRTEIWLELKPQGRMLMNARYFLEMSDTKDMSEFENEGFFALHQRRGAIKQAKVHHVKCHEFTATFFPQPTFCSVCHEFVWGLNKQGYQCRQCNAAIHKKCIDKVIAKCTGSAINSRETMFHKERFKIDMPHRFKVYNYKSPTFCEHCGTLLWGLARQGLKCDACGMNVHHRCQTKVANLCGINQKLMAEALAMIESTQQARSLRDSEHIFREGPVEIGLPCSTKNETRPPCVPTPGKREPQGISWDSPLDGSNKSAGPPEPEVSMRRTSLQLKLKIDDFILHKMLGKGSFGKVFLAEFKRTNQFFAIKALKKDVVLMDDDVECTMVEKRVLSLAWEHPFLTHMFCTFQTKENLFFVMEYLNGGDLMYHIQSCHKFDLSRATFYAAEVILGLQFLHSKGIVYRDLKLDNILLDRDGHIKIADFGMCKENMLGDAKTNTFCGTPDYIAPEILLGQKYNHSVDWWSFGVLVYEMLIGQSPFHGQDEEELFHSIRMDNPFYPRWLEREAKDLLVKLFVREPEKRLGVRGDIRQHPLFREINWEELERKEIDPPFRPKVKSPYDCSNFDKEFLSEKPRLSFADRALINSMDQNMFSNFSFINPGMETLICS
Sequence of mouse PKCδ-mVenus (P28867 whole entry, the tested form may be a part): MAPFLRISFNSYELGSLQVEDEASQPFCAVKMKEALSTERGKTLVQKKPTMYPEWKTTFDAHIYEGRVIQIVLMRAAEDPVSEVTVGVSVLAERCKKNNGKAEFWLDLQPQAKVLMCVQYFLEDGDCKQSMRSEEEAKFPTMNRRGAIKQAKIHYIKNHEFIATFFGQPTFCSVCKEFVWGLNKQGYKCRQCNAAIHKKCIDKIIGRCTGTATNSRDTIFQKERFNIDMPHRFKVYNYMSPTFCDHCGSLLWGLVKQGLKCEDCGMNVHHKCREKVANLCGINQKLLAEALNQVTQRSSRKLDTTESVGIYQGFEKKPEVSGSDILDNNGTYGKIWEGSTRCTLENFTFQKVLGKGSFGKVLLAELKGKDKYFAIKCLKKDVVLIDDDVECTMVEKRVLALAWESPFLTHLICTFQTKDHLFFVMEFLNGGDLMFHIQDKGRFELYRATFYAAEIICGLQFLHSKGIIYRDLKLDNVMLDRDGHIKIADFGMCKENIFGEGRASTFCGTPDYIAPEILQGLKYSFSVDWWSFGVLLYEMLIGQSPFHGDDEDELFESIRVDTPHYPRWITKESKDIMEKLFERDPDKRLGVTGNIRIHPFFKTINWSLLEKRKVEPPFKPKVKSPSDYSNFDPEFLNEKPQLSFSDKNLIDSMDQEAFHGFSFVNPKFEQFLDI
T2 sequence (P68404 whole entry, the tested form may be a part): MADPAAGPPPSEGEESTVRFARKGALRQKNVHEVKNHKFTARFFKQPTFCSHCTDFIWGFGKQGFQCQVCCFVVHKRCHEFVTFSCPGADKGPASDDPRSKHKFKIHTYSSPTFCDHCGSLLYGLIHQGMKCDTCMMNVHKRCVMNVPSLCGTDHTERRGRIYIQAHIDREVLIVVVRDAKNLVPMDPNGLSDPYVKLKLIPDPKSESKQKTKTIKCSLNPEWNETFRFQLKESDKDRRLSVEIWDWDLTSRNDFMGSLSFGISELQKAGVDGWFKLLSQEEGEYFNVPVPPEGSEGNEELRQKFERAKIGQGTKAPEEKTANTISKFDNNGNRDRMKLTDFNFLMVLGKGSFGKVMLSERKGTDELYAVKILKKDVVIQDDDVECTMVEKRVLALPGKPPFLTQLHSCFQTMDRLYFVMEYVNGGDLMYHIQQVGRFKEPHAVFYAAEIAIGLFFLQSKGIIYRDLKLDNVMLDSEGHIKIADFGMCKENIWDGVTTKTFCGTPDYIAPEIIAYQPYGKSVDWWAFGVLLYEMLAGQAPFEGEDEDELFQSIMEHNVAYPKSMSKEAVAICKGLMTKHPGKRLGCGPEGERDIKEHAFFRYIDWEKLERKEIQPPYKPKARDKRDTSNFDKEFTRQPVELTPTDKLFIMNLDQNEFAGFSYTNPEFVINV

In the case of `CCCCCCCCCCCCCC(=O)O[C@@H]1[C@@H](C)[C@@]2(O)[C@@H](C=C(CO)C[C@]3(O)C(=O)C(C)=C[C@@H]23)[C@@H]2C(C)(C)[C@]12OC(C)=O` [PMA, 12-O-tetradecanoylphorbol-13-acetate], the “Efficacy, PKCε” value (mouse PKCε-mVenus; PMA vs probe 47) is reported as 81%, the “IC50/Ki, PKCε” value (mouse PKCε-mVenus; PMA vs probe 47) is reported as 1.4 and the IC50 (mouse PKCε-mVenus; probe 47 2.9 μM, verapamil 25 μM, read-out: IC50 (PMA), PKCε) is reported as 49 nM. The Ki (mouse PKCε-mVenus; probe 47 2.9 μM, verapamil 25 μM, read-out: Ki (PMA), PKCε) was 36 nM, the “Efficacy, PKCη” value (mouse PKCη-mVenus; PMA vs probe 47) was 80% and the “IC50/Ki, PKCη” value (mouse PKCη-mVenus; PMA vs probe 47) was 1.5. For the same compound, the IC50 (mouse PKCη-mVenus; probe 47 4.3 μM, verapamil 25 μM, read-out: IC50 (PMA), PKCη) was 32 nM, the Ki (mouse PKCη-mVenus; probe 47 4.3 μM, verapamil 25 μM, read-out: Ki (PMA), PKCη) was 21 nM and the “Efficacy, PKCδ” value (mouse PKCδ-mVenus; PMA vs probe 47) was 81%. For the same compound, the “IC50/Ki, PKCδ” value (mouse PKCδ-mVenus; PMA vs probe 47) was 1.7, the IC50 (mouse PKCδ-mVenus; probe 47 5.8 μM, verapamil 25 μM, read-out: IC50 (PMA), PKCδ) was 39 nM and the Ki (mouse PKCδ-mVenus; probe 47 5.8 μM, verapamil 25 μM, read-out: Ki (PMA), PKCδ) was 23 nM. For the same compound, the “Efficacy, PKCβI” value (mouse PKCβI-mVenus [1]; PMA vs probe 47) was 103%, the “IC50/Ki, PKCβI” value (mouse PKCβI-mVenus [1]; PMA vs probe 47) was 2.5 and the IC50 (mouse PKCβI-mVenus [1]; probe 47 1.4 μM, verapamil 25 μM, read-out: IC50 (PMA), PKCβI) was 15 nM. For the same compound, the Ki (mouse PKCβI-mVenus [1]; probe 47 1.4 μM, verapamil 25 μM, read-out: Ki (PMA), PKCβI) was 5.7 nM, the “Efficacy, PKCθ” value (mouse PKCθ-mVenus; PMA vs probe 47) was 80% and the “IC50/Ki, PKCθ” value (mouse PKCθ-mVenus; PMA vs probe 47) was 1.4. For the same compound, the IC50 (mouse PKCθ-mVenus; probe 47 4.3 μM, verapamil 25 μM, read-out: IC50 (PMA), PKCθ) was 13 nM, the Ki (mouse PKCθ-mVenus; probe 47 4.3 μM, verapamil 25 μM, read-out: Ki (PMA), PKCθ) was 10 nM and the “Efficacy, PKCα” value (mouse PKCα-mVenus; PMA vs probe 47) was 95%. For the same compound, the “IC50/Ki, PKCα” value (mouse PKCα-mVenus; PMA vs probe 47) was 1.9, the IC50 (mouse PKCα-mVenus; probe 47 1.4 μM, verapamil 25 μM, read-out: IC50 (PMA), PKCα) was 14 nM and the Ki (mouse PKCα-mVenus; probe 47 1.4 μM, verapamil 25 μM, read-out: Ki (PMA), PKCα) was 7.5 nM. For the same compound, the “Efficacy, PKCγ” value (mouse PKCγ-mVenus; PMA vs probe 47) was 97%, the “IC50/Ki, PKCγ” value (mouse PKCγ-mVenus; PMA vs probe 47) was 2.4 and the IC50 (mouse PKCγ-mVenus; probe 47 2.9 μM, verapamil 25 μM, read-out: IC50 (PMA), PKCγ) was 12 nM. It also gave a Ki (mouse PKCγ-mVenus; probe 47 2.9 μM, verapamil 25 μM, read-out: Ki (PMA), PKCγ) of 4.9 nM.
In the case of `CC(=O)O[C@H]1C(=O)[C@@]2(C)[C@H]([C@H](OC(=O)c3ccccc3)[C@]3(O)C[C@H](O)C(C)=C1C3(C)C)[C@]1(OC(C)=O)CO[C@@H]1C[C@@H]2O` [baccatin III], the “inhibition of binding of PB-GABA-Taxol to cellular microtubules” value [2] is listed as 28%, the Ki [3] is listed as 17000 ± 3000 nM and the Kd [4] is listed as 6700 ± 2000 nM.
In the case of `CO[C@H]1C(=O)[C@]2(C)[C@@H](OC)C[C@H]3OC[C@@]3(OC(C)=O)[C@H]2[C@H](OC(=O)c2ccccc2)[C@]2(O)C[C@H](OC(=O)[C@H](O)[C@@H](NC(=O)OC(C)(C)C)c3ccccc3)C(C)=C1C2(C)C` [cabazitaxel], the Ki [3] is listed as 6 nM and the Ki [4] is listed as 7.4 ± 0.9 nM.
For `CC(=O)O[C@@]12CO[C@@H]1C[C@H](O)[C@@]1(C)C(=O)[C@H](O)C3=C(C)[C@@H](OC(=O)[C@H](O)[C@@H](NC(=O)OC(C)(C)C)c4ccccc4)C[C@@](O)([C@@H](OC(=O)c4ccccc4)[C@H]21)C3(C)C` [docetaxel], the Ki [3] is given as 16 nM and the Ki [4] is given as 17 ± 6 nM.
For `COc1cc2cc(c1Cl)N(C)C(=O)C[C@H](OC(=O)[C@H](C)N(C)C(C)=O)[C@]1(C)O[C@H]1[C@H](C)[C@@H]1C[C@@](O)(NC(=O)O1)[C@H](OC)/C=C/C=C(\C)C2` [maytansine], the “cooperativity factor α” value [5] was 0.21 and the Kb [5] was 3 nM.
For `CC1=C[C@H]2[C@@]3(O)[C@H](C)[C@@H](O)[C@]4(OC(=O)N(C)CCCCCCCCN(C)C(=O)c5cc6cc(F)c(O)c(F)c6oc5=O)[C@H]([C@@H]3C=C(CO)C[C@]2(O)C1=O)C4(C)C` [probe 32, (1aR,1bS,4aR,7aS,7bS,8R,9R,9aS)-4a,7b,9-trihydroxy-3-(hydroxymethyl)-1,1,6,8-tetramethyl-5-oxo-1,1a,1b,4,4a,5,7a,7b,8,9-decahydro-9aH-cyclopropa[3,4]benzo[1,2-e]azulen-9a-yl (8-(6,8-difluoro-7-hydroxy-N-methyl-2-oxo-2H-chromene-3-carboxamido)octyl)(methyl)carbamate], the Kd (mouse PKCβI-mVenus [6]) was 63000 nM.
In the case of `C#CCN(CCCCCCCCCCCCNC(=O)c1cc2cc(F)c(O)c(F)c2oc1=O)C(=O)O[C@@]12[C@H](O)[C@@H](C)[C@@]3(O)[C@@H](C=C(CO)C[C@]4(O)C(=O)C(C)=C[C@@H]34)[C@@H]1C2(C)C` [probe 48, (1aR,1bS,4aR,7aS,7bS,8R,9R,9aS)-4a,7b,9-trihydroxy-3-(hydroxymethyl)-1,1,6,8-tetramethyl-5-oxo-1,1a,1b,4,4a,5,7a,7b,8,9-decahydro-9aH-cyclopropa[3,4]benzo[1,2-e]azulen-9a-yl (12-(6,8-difluoro-7-hydroxy-2-oxo-2H-chromene-3-carboxamido)dodecyl)(prop-2-yn-1-yl)carbamate], the “affinity relative to 33” value (C1A-C1A-EYFP (PKCγ)) is reported as ~2 fold and the Kd (C1A-C1A-EYFP (PKCγ); verapamil 100 μM, 90 min, 37° C., DMEM high glucose, 4% FBS, read-out: apparent Kd) is reported as 2000 nM.
For `CC[C@]1(O)C[C@@H]2CN(CCc3c([nH]c4ccccc34)[C@@](C(=O)OC)(c3cc4c(cc3OC)N(C)[C@H]3[C@@](O)(C(=O)OC)[C@H](OC(C)=O)[C@]5(CC)C=CCN6CC[C@]43[C@@H]65)C2)C1` [vinblastine], the “cooperativity factor α” value [5] is listed as 0.18, the Kb [5] is listed as 7 nM and the Kd [4] is listed as 190 to 1000 nM.
